Values after ≈ are worked out from the molar mass of the structure shown. “Also recorded” adds a separate entry of the source.
Experiments:
[1] = test system: P. aeruginosa DM50; assay: Inhibition of biofilm formation, crystal violet; type: cell-based, Pseudomonas aeruginosa; conditions: P. aeruginosa DM50, 50 μg mL^-1
From the text: (§1) Test organisms for the antibacterial assays were obtained from the National Collection of Type Cultures (NCTC) and the American Type Culture Collection (ATCC). P. aeruginosa PAO1 NCTC 10332, S. aureus ATCC 25923 and S. aureus ATCC 43300 (MRSA) and S. marcescens ATCC 27117 were used in this study. One clinical isolate of P. aeruginosa DM50 with high ability to form biofilms and resistance to metronidazole, clindamycin and amoxicillin was also included ([Glisic et al., 2016]). Bacterial strains were grown in Luria Bertani (LB) broth at 37°C on a rotary shaker at 180 rpm.
(§2) Biofilm quantification assays were performed in 96-well microtiter plates using a crystal violet (CV) method to stain adherent cells ([Merritt et al., 2005]). Overnight cultures of bacteria were diluted to 5 × 10^7 cfu mL^-1 in LB and 100 μL was added to the wells in the presence of test compounds or DMSO (0.1%, v/v). Biofilms formed for 24 h at 37°C for P. aeruginosa and S. aureus, or 30°C for S. marcescens were washed and adherent cells stained with CV 0.1% (v/v). BFIC50 (concentration of compound that inhibited biofilm formation by 50%) was determined for each compound.

[2] = test system: S. marcescens ATCC 27117; assay: Inhibition of biofilm formation, crystal violet; type: cell-based, Serratia marcescens; conditions: S. marcescens ATCC 27117, 50 μg mL^-1
From the text: as §1, §2

[3] = test system: S. aureus MRSA; assay: Biofilm dispersion assay, crystal violet; type: cell-based, Staphylococcus aureus
[4] = test system: S. marcescens ATCC 27117; assay: Biofilm dispersion assay, crystal violet; type: cell-based, Serratia marcescens; conditions: S. marcescens ATCC 27117, 50 μg mL^-1
From the text: as §1
(§3) An overnight culture of P. aeruginosa was diluted to 5 × 10^7 cfu mL^-1 in LB and 100 μL was added to the wells in 96-well microtiter plates and incubated for 24 h at 37°C. After removal of the supernatant and two washing steps with PBS adherent cells were treated with different concentrations of rhamnolipids or derivatives for additional 24 h and the biofilms were quantified using CV as described above. Biofilm dispersion assays were performed in six wells and repeated three times.

[5] = test system: S. aureus ATCC 25923; assay: Biofilm dispersion assay, crystal violet; type: cell-based, Staphylococcus aureus; conditions: S. aureus ATCC 25923, 50 μg mL^-1
[6] = test system: P. aeruginosa DM50; assay: Biofilm dispersion assay, crystal violet; type: cell-based, Pseudomonas aeruginosa; conditions: P. aeruginosa DM50, 50 μg mL^-1
From the text: as §1, §3

[7] = test system: P. aeruginosa PAO1; assay: Biofilm dispersion assay, crystal violet; type: cell-based, Pseudomonas aeruginosa; conditions: for Biofilm biomass (%) remained after biofilm dispersion: P. aeruginosa PAO1, 50 μg mL^-1
From the text: as §1, §3

[8] = test system: P. aeruginosa PAO1; assay: Inhibition of biofilm formation, crystal violet; type: cell-based, Pseudomonas aeruginosa; conditions: for Biofilm formation (%): P. aeruginosa PAO1, 50 μg mL^-1
From the text: as §1, §2
The effect of rhamnolipids on P. aeruginosa biofilm formation was examined additionally by introducing 3 h adhesion phase after inoculation with 5 × 10^7 cfu mL^-1 cells. Following adhesion, the supernatant was removed and, after two washing steps with phosphate buffered saline (PBS), test compounds or DMSO were applied and the biofilms were quantified after 24 h using CV. Each biofilm formation assay was performed in six wells and repeated at least three times.

[9] = test system: S. aureus ATCC 25923; assay: Inhibition of biofilm formation, crystal violet; type: cell-based, Staphylococcus aureus; conditions: S. aureus ATCC 25923, 50 μg mL^-1
From the text: as §1, §2

[10] = test system: S. aureus MRSA; assay: Inhibition of biofilm formation, crystal violet; type: cell-based, Staphylococcus aureus
From the text: as §1, §2

[11] = test system: MRC5 human lung fibroblasts; assay: Cytotoxicity assay, MTT; type: cell-based; conditions: concentrations up to 100 μg mL^-1, MTT, 48 h
Procedure: MRC5 human lung fibroblasts were obtained from the ATCC. Cells were maintained as monolayer cultures in RPMI-1640 supplemented with 100 mg L^-1 streptomycin, 100 U mL^-1 penicillin and 10% (v/v) FBS (all from Sigma, Munich, Germany). Cells were grown in a humidified atmosphere of 95% air and 5% CO2 at 37°C.
Cytotoxicity on MRC5 cells was evaluated with 3-(4,5-dimethylthiazol-2-yl)-2,5-diphenyltetrazolium bromide (MTT). The assay was carried out after 48 h of cell incubation in the media containing test compounds at different concentrations and the viability was measured as described ([Mihajlovic et al., 2012]). The results are presented as the percentage of the control (untreated cells) that was arbitrarily set to 100%.

[12] = test system: S. aureus ATCC 25923; assay: MIC, broth microdilution, planktonic cells; type: cell-based; conditions: Staphylococcus aureus, ATCC25923, 24 h, S. aureus ATCC 25923, 24 h incubation
From the text: as §1
(§4) The minimum inhibitory concentration (MIC) of rhamnolipids and their derivatives were determined according to standard broth microdilution assays recommended by the National Committee for Clinical Laboratory Standards (M07-A8).
(§5) Stock solutions of rhamnolipids and derivatives were prepared in DMSO (50 g L^-1, w/v). The highest concentration used was 500 mg L^-1. The inoculums were 10^5 colony forming units (cfu) mL^-1.

[13] = test system: S. aureus MRSA; assay: MIC, broth microdilution, planktonic cells; type: cell-based; conditions: Staphylococcus aureus, 24 h, 24 h incubation
From the text: as §1, §4, §5

[14] = test system: P. aeruginosa DM50; assay: MIC, broth microdilution, planktonic cells; type: cell-based; conditions: Pseudomonas aeruginosa; P. aeruginosa DM50, 24 h incubation
From the text: as §1, §4, §5

[15] = test system: P. aeruginosa PAO1; assay: MIC, broth microdilution, planktonic cells; type: cell-based; conditions: Pseudomonas aeruginosa; P. aeruginosa PAO1, 24 h incubation
From the text: as §1, §4, §5

[16] = test system: S. marcescens ATCC 27117; assay: MIC, broth microdilution, planktonic cells; type: cell-based; conditions: Serratia marcescens, ATCC27117; S. marcescens ATCC 27117, 24 h incubation
From the text: as §1, §4, §5

[17] = test system: P. aeruginosa PAO1-GFP; assay: Anti-adhesion assay, GFP fluorescence; type: cell-based, Pseudomonas aeruginosa; conditions: 2 h
Procedure: Anti-adhesion assay was performed as previously described ([Shetye et al., 2014]) with some modifications. An overnight culture of P. aeruginosa PAO1 containing pBBR2-GFP ([da Silva et al., 2014]) was subcultured (initial OD600 = 0.02) in M9+/LB (95:5) containing gentamycin (80 mg L^-1), tetracycline (20 mg L^-1), and chloramphenicol (50 mg L^-1) at 37°C in a rotary shaker (200 rpm). After reaching OD600 = 0.1, aliquots (200 μL) were transferred to the wells of black polystyrene microtiter plate with rhamnolipids, derivatives or DMSO (control). After incubation at 37°C for 2 h, bacterial cultures were discarded, and the fluorescence of adherent cells was measured after addition of fresh M9+/LB (95:5) medium using Tecan Infinite 200 Microplate reader (Tecan Group Ltd., Switzerland, lex = 500 nm, lem = 540 nm). Background signal (M9+/LB (95:5) was subtracted from all the samples. Assays were repeated three times; inhibition values are the averages of six replicate wells from one experiment.

[18] = listed as Rha-TBDMS (Lysinibacillus sp. BV152.1)
[19] = 50 μg mL^-1, listed as Rha-TBDMS (Lysinibacillus sp. BV152.1)

Structure (SMILES)	Biofilm formation (%) [1] [%]	Biofilm formation (%) [2] [%]	Biofilm biomass (%) remained after biofilm dispersion ([3]; 50 μg mL^-1) [%]	Biofilm biomass (%) remained after biofilm dispersion [4] [%]	Biofilm biomass (%) remained after biofilm dispersion [5] [%]	Biofilm biomass (%) remained after biofilm dispersion [6] [%]	Biofilm biomass (%) remained after biofilm dispersion [7] [%]	Biofilm formation (%) [8] [%]	Viability of human lung fibroblasts (MRC5) [11]	Biofilm formation (%) [9] [%]	Biofilm formation (%) ([10]; 50 μg mL^-1)	MIC [12] [µg/mL]	MIC [13] [µg/mL]	MIC [14] [µg/mL]	MIC [15] [µg/mL]	MIC [16] [µg/mL]	further results
CCCCCCCC(CC(=O)O)OC(=O)CC(CCCCCCC)O[C@@H]1O[C@@H](C)[C@H](O[Si](C)(C)C(C)(C)C)[C@@H](O[Si](C)(C)C(C)(C)C)[C@H]1O[C@@H]1O[C@@H](C)[C@H](O[Si](C)(C)C(C)(C)C)[C@@H](O[Si](C)(C)C(C)(C)C)[C@H]1O[Si](C)(C)C(C)(C)C (some centres unmarked)																	Biofilm formation (%) [1, 18]: 100 ± 8%; Biofilm formation (%) [2, 18]: 85 ± 1%; Biofilm biomass (%) remained after biofilm dispersion [3, 19]: 101 ± 14%; Biofilm biomass (%) remained after biofilm dispersion [4, 18]: 99 ± 8%; Biofilm biomass (%) remained after biofilm dispersion [5, 18]: 110 ± 22%; Biofilm biomass (%) remained after biofilm dispersion [6, 18]: 65 ± 1%; Biofilm biomass (%) remained after biofilm dispersion [7, 18]: 80 ± 6%; anti-biofilm formation activity ([8]; P. aeruginosa PAO1): no anti-biofilm formation activity; Biofilm formation (%) [8, 18]: 115 ± 10%; Biofilm formation (%) [9, 18]: 88 ± 12%; Biofilm formation (%) [10, 19]: 106 ± 4%
CCCCCCCC(CC(=O)O)OC(=O)CC(CCCCCCC)O[C@@H]1O[C@@H](C)[C@H](O)[C@@H](O)[C@H]1O[C@@H]1O[C@@H](C)[C@H](O)[C@@H](O)[C@H]1O (stereo partly drawn) [di-Rha, Rha-Rha-C10-C10]	109 ± 10	20 ± 5	82 ± 7	193 ± 8	80 ± 9	135 ± 10	77 ± 3	50 ± 3	not affected; also recorded: not toxic	37 ± 4	44 ± 11	> 500	> 500	> 500	> 500	> 500	disruption of pre-formed biofilms ([7]; 24 h old P. aeruginosa biofilms, 100 μg mL^-1): up to 20%; effect on biofilm formation when bacteria were left to attach prior to treatment ([8]; P. aeruginosa PAO1, concentrations up to 50 μg mL^-1): stimulated biofilm formation; IC50 ([8]; Pseudomonas aeruginosa, P. aeruginosa PAO1, 24 h, read-out: BFIC50 (concentration of compound that inhibited biofilm formation by 50%)): 75 µg/mL (≈ 115 µM)
CCCCCCCC(CC(=O)O)OC(=O)CC(CCCCCCC)O[C@@H]1O[C@@H](C)[C@H](O[Si](C)(C)C(C)(C)C)[C@@H](O[Si](C)(C)C(C)(C)C)[C@H]1O[C@@H]1O[C@@H](C)[C@H](O[Si](C)(C)C(C)(C)C)[C@@H](O[Si](C)(C)C(C)(C)C)[C@H]1O[Si](C)(C)C(C)(C)C (some centres unmarked) [di-Rha-TBDMS (P. aeruginosa)]	73 ± 6	117 ± 4	120 ± 10	155 ± 3	82 ± 3	78 ± 10	76 ± 10	95 ± 7	not affected	88 ± 10	69 ± 11	> 500	> 500	> 500	> 500	> 500	anti-adhesion activity [17]: no significant anti-adhesion activity
